Experiments:
Assay type in all cases: in vivo
Alopecurus = experiment: Pre-emergence test/greenhouse; settings: after three weeks
Description: (§1) Pre-emergence Test Solvent: 5 parts by weight of acetone Emulsifier: 1 part by weight of alkylaryl polyglycol ether To produce a suitable preparation of active compound, 1 part by weight of active compound is mixed with the stated amount of solvent, the stated amount of emulsifier is added and the concentrate is diluted with water to the desired concentration. Seeds of the test plants are sown in normal soil. After about 24 hours, the soil is sprayed with the preparation of the active compound in such a way as to apply the particular amounts of active compound desired per unit area The concentration of the spray liquor is chosen so that the particular amounts of active compound desired are applied in 1000 l of water/ha. After three weeks, the degree of damage to the plants is rated in % damage in comparison to the development of the untreated control. The figures denote: [table]

Amaranthus = experiment: Pre-emergence test/greenhouse; settings: after three weeks
Description: as §1

Chenopodium = experiment: Pre-emergence test/greenhouse; settings: after three weeks
Description: as §1

Lolium = experiment: Pre-emergence test/greenhouse; settings: after three weeks
Description: as §1

Maize = experiment: Pre-emergence test/greenhouse; settings: after three weeks
Description: as §1

Matricaria = experiment: Pre-emergence test/greenhouse; settings: 125 g ai./ha, after three weeks
Description: as §1

Solanum [1] = experiment: Pre-emergence test/greenhouse; settings: after three weeks
Description: as §1

Sorghum [2] = experiment: Pre-emergence test/greenhouse; settings: after three weeks
Description: as §1

weeds [3] = experiment: Pre-emergence test; settings: cf. Tables A-1 to A-5
Description: as §1

Ipomoea = experiment: Post-emergence test/greenhouse; settings: rated after three weeks vs untreated control
Description: as §1, with “Post-emergence” for “Pre-emergence”, “Test plants which have a height” for “Seeds”, “5-15 cm” for “the test plants”, “are” for “are sown in normal soil. After about 24 hours, the soil is”, “area.” for “area”

Solanum [4] = experiment: Post-emergence test/greenhouse; settings: post-emergence, rated after three weeks vs untreated control
Description: as §1, with “Post-emergence” for “Pre-emergence”, “Test plants which have a height” for “Seeds”, “5-15 cm” for “the test plants”, “are” for “are sown in normal soil. After about 24 hours, the soil is”, “area.” for “area”

Sorghum [5] = experiment: Post-emergence test/greenhouse; settings: post-emergence, rated after three weeks vs untreated control
Description: as §1, with “Post-emergence” for “Pre-emergence”, “Test plants which have a height” for “Seeds”, “5-15 cm” for “the test plants”, “are” for “are sown in normal soil. After about 24 hours, the soil is”, “area.” for “area”

Stellaria = experiment: Post-emergence test/greenhouse; settings: rated after three weeks vs untreated control
Description: as §1, with “Post-emergence” for “Pre-emergence”, “Test plants which have a height” for “Seeds”, “5-15 cm” for “the test plants”, “are” for “are sown in normal soil. After about 24 hours, the soil is”, “area.” for “area”

Wheat = experiment: Post-emergence test/greenhouse; settings: rated after three weeks vs untreated control
Description: as §1, with “Post-emergence” for “Pre-emergence”, “Test plants which have a height” for “Seeds”, “5-15 cm” for “the test plants”, “are” for “are sown in normal soil. After about 24 hours, the soil is”, “area.” for “area”

weeds [6] = experiment: Post-emergence test; settings: cf. Tables B-1 to B-4
Description: as §1, with “Post-emergence” for “Pre-emergence”, “Test plants which have a height” for “Seeds”, “5-15 cm” for “the test plants”, “are” for “are sown in normal soil. After about 24 hours, the soil is”, “area.” for “area”

Xanthium = experiment: Post-emergence test/greenhouse; settings: post-emergence, rated after three weeks vs untreated control
Description: as §1, with “Post-emergence” for “Pre-emergence”, “Test plants which have a height” for “Seeds”, “5-15 cm” for “the test plants”, “are” for “are sown in normal soil. After about 24 hours, the soil is”, “area.” for “area”

Compound: CCSc1cccc(C(F)(F)F)c1S(=O)(=O)NC(=O)n1nc(OC)n(C)c1=O [Example 13]
- % damage, Alopecurus (Alopecurus; 125 g ai./ha): 90%
- % damage, Amaranthus (Amaranthus; 125 g ai./ha): 100%
- % damage, Chenopodium (Chenopodium; 125 g ai./ha): 100%
- % damage, Lolium (Lolium; 125 g ai./ha): 90%
- % damage, Maize (Maize; 125 g ai./ha): 0%
- % damage, Matricaria (Matricaria): 100%
- % damage, Solanum (Solanum [1]; 125 g ai./ha): 100%
- % damage, Sorghum (Sorghum [2]; 125 g ai./ha): 100%
- activity against weeds (weeds [3]): very strong activity
- Ipomoea, % damage (Ipomoea; 60 g ai./ha): 90%
- Solanum, % damage (Solanum [4]; 60 g ai./ha): 95%
- Sorghum, % damage (Sorghum [5]; 60 g ai./ha): 80%
- Stellaria, % damage (Stellaria; 60 g ai./ha): 95%
- Wheat, % damage (Wheat; 60 g ai./ha): 0%
- activity against weeds (weeds [6]): very strong activity

Compound: CCSc1cccc(C)c1S(=O)(=O)NC(=O)n1nc(OC)n(C)c1=O [Example 53]
- Ipomoea, % damage (Ipomoea; 125 g ai./ha): 95%
- Solanum, % damage (Solanum [4]; 125 g ai./ha): 59%
- Sorghum, % damage (Sorghum [5]; 125 g ai./ha): 95%
- Stellaria, % damage (Stellaria; 125 g ai./ha): 90%
- Wheat, % damage (Wheat; 125 g ai./ha): 20%
- Xanthium, % damage (Xanthium; 125 g ai./ha): 100%
- activity against weeds (weeds [6]): very strong activity

Compound: CCc1nn(C(=O)NS(=O)(=O)c2c(SC)cccc2C(F)(F)F)c(=O)n1C [Example 63]
- % damage, Alopecurus (Alopecurus; 60 g ai./ha): 100%
- % damage, Amaranthus (Amaranthus; 60 g ai./ha): 100%
- % damage, Chenopodium (Chenopodium; 60 g ai./ha): 100%
- % damage, Lolium (Lolium; 60 g ai./ha): 70%
- % damage, Maize (Maize; 60 g ai./ha): 0%
- % damage, Solanum (Solanum [1]; 60 g ai./ha): 100%
- % damage, Sorghum (Sorghum [2]; 60 g ai./ha): 100%
- activity against weeds (weeds [3]): very strong activity

Compound: CCOc1nn(C(=O)NS(=O)(=O)c2c(Cl)cccc2SC)c(=O)n1C [Example 1, 5-ethoxy-4-methyl-2-(2-chloro-6-methylthio-phenylsulfonyl-aminocarbonyl)-2,4-dihydro-3H-1,2,4-triazol-3-one]
- % damage, Alopecurus (Alopecurus; 125 g ai./ha): 95%
- % damage, Amaranthus (Amaranthus; 125 g ai./ha): 90%
- % damage, Chenopodium (Chenopodium; 125 g ai./ha): 60%
- % damage, Lolium (Lolium; 125 g ai./ha): 70%
- % damage, Maize (Maize; 125 g ai./ha): 0%
- % damage, Matricaria (Matricaria): 70%
- % damage, Solanum (Solanum [1]; 125 g ai./ha): 100%
- % damage, Sorghum (Sorghum [2]; 125 g ai./ha): 90%
- activity against weeds (weeds [3]): very strong activity

Compound: CSc1cccc(C(F)(F)F)c1S(=O)(=O)NC(=O)n1nc(SC)n(C)c1=O [Example 62]
- % damage, Alopecurus (Alopecurus; 60 g ai./ha): 100%
- % damage, Amaranthus (Amaranthus; 60 g ai./ha): 100%
- % damage, Chenopodium (Chenopodium; 60 g ai./ha): 100%
- % damage, Lolium (Lolium; 60 g ai./ha): 100%
- % damage, Maize (Maize; 60 g ai./ha): 10%
- % damage, Solanum (Solanum [1]; 60 g ai./ha): 100%
- % damage, Sorghum (Sorghum [2]; 60 g ai./ha): 90%
- activity against weeds (weeds [3]): very strong activity

Compound: CCSc1cccc(SCC)c1S(=O)(=O)NC(=O)n1nc(CC)n(C)c1=O [Example 44]
- Ipomoea, % damage (Ipomoea; 60 g ai./ha): 95%
- Solanum, % damage (Solanum [4]; 60 g ai./ha): 95%
- Sorghum, % damage (Sorghum [5]; 60 g ai./ha): 70%
- Stellaria, % damage (Stellaria; 60 g ai./ha): 80%
- Wheat, % damage (Wheat; 60 g ai./ha): 10%
- Xanthium, % damage (Xanthium; 60 g ai./ha): 100%
- activity against weeds (weeds [6]): very strong activity

Compound: CCSc1cccc(C(F)(F)F)c1S(=O)(=O)NC(=O)n1nc(SC)n(C)c1=O [Example 14]
- % damage, Alopecurus (Alopecurus; 125 g ai./ha): 100%
- % damage, Amaranthus (Amaranthus; 125 g ai./ha): 70%
- % damage, Chenopodium (Chenopodium; 125 g ai./ha): 100%
- % damage, Maize (Maize; 125 g ai./ha): 0%
- % damage, Matricaria (Matricaria): 100%
- % damage, Solanum (Solanum [1]; 125 g ai./ha): 100%
- % damage, Sorghum (Sorghum [2]; 125 g ai./ha): 90%
- activity against weeds (weeds [3]): very strong activity

Source: patent US6677277B1, “Substituted sulphonyl amino(thio)carbonyl compounds and their use as herbicides” (Bayer Aktiengesellschaft, priority 1996, dated 2004)
